Structures are written as SMILES.

Holding throughout (type): cell-based
The target of test [1] is T1, DUB activity in cells (NCI-H929, Z138, MM.1S, A375) (Homo sapiens, UniProt Q93008).
T1 construct: endogenous in cells; host or cells: NCI-H929, Z138, MM.1S, A375
Description: HA-Ubiquitin-Vinylsulfone (HA-Ub-VS) cell labeling assay. The following applies: compound tested at 5 μM; HA-Ub-VS labeling of USP9x in cells. As for the experimental part: Example B-1: HA-Ubiqutin-Vinylsulfone (HA-Ub-VS) Cell Labeling
Inhibitition of DUB activity is measured in cells (NCI-H929, Z138, MM.1S, A375) using a hemaglutinin-ubiquitin-vinylsulfone (HA-Ub-VS) labeling assay. Briefly, 1-2×10^6 cells are plated in 12-well plates in 1 ml complete growth media and 250 μl of test compound in 0.5% dimethylsulfoxide (or DMSO control) is added to each well. Plates are incubated at 37° C., 5% CO2 for 2-6 hours before cells are harvested into eppendorf tubes, washed once in PBS and resuspended in 100 μl cold lysis buffer (50 mM Tris pH 8, 150 mM NaCl, 0.5% NP-40, 2 mM phenylmethylsulfonyl fluoride and complete protease inhibitor tablet). Resupended cells are frozen on dry ice, then thawed and incubated on ice for 15 minutes. Tubes are centrifuged for 10 minutes at 14,000 rpm at 4° C. and the cleared supernatants transferred to clean tubes. […] The samples are incubated 15-60 min at 37° C. before the addition of SDS gel loading buffer. Proteins are separated by SDS-PAGE, transferred to nitrocellulose and the blot probed with anti-HA antibody and anti-β-actin antibodies. The HA and β-actin antibodies are detected using secondary antibodies coupled to IRdye 800 or IRdye 680 and visualized and quantitated using the LiCor Odyssey machine.
(§1) The following compounds were tested in the above assays at 5 μM: […]

The subject of test [2] is Mcl-1 expression in cells (NCI-H929, Z138, MM.1S, A-375). Nature of the test: Analysis of Mcl-1 expression by Western blotting. Conditions: compound tested at 5 μM; Western blot. As for the experimental part:
(§2) Example B-2: Analysis of Md-1 Expression and PARP Cleavage
(§3) The ability of test compounds to decrease expression of the tumor promoting protein, Mcl-1, and to induce the inactivation/cleavage of the PARP protein is evaluated in cells (NCI-H929, Z138, MM.1S, A-375) by Western blotting. Cells are plated and treated as described in the HA-Ub-VS cell labeling assay (see above). A portion of the cleared lysate (15-50 μl) is run on an SDS-polyacrylamide gel to separate proteins and then transferred to nitrocellulose. After transfer to nitrocellulose, the proteins are detected by probing the blot with anti-Mcl-1 and anti-PARP antibodies followed by secondary antibodies coupled to IRdye 800 and IRdye 680 and visualization and quantitation using a LiCor Odyssey machine. Activity of the test compound is identified as a significant decrease in Mcl-1 expression relative to the vehicle treated cells and to the appearance of a cleaved fragment of PARP relative to the vehicle-treated cells.
as §1
(Immunoblotting shows a protein as a band on a membrane.)

For test [3], the system named is PARP cleavage in cells (NCI-H929, Z138, MM.1S, A-375). Description: Analysis of PARP cleavage by Western blotting. Conditions: compound tested at 5 μM; Western blot. As for the experimental part: as §2, §3, §1

T1 sequence (Q93008 whole entry): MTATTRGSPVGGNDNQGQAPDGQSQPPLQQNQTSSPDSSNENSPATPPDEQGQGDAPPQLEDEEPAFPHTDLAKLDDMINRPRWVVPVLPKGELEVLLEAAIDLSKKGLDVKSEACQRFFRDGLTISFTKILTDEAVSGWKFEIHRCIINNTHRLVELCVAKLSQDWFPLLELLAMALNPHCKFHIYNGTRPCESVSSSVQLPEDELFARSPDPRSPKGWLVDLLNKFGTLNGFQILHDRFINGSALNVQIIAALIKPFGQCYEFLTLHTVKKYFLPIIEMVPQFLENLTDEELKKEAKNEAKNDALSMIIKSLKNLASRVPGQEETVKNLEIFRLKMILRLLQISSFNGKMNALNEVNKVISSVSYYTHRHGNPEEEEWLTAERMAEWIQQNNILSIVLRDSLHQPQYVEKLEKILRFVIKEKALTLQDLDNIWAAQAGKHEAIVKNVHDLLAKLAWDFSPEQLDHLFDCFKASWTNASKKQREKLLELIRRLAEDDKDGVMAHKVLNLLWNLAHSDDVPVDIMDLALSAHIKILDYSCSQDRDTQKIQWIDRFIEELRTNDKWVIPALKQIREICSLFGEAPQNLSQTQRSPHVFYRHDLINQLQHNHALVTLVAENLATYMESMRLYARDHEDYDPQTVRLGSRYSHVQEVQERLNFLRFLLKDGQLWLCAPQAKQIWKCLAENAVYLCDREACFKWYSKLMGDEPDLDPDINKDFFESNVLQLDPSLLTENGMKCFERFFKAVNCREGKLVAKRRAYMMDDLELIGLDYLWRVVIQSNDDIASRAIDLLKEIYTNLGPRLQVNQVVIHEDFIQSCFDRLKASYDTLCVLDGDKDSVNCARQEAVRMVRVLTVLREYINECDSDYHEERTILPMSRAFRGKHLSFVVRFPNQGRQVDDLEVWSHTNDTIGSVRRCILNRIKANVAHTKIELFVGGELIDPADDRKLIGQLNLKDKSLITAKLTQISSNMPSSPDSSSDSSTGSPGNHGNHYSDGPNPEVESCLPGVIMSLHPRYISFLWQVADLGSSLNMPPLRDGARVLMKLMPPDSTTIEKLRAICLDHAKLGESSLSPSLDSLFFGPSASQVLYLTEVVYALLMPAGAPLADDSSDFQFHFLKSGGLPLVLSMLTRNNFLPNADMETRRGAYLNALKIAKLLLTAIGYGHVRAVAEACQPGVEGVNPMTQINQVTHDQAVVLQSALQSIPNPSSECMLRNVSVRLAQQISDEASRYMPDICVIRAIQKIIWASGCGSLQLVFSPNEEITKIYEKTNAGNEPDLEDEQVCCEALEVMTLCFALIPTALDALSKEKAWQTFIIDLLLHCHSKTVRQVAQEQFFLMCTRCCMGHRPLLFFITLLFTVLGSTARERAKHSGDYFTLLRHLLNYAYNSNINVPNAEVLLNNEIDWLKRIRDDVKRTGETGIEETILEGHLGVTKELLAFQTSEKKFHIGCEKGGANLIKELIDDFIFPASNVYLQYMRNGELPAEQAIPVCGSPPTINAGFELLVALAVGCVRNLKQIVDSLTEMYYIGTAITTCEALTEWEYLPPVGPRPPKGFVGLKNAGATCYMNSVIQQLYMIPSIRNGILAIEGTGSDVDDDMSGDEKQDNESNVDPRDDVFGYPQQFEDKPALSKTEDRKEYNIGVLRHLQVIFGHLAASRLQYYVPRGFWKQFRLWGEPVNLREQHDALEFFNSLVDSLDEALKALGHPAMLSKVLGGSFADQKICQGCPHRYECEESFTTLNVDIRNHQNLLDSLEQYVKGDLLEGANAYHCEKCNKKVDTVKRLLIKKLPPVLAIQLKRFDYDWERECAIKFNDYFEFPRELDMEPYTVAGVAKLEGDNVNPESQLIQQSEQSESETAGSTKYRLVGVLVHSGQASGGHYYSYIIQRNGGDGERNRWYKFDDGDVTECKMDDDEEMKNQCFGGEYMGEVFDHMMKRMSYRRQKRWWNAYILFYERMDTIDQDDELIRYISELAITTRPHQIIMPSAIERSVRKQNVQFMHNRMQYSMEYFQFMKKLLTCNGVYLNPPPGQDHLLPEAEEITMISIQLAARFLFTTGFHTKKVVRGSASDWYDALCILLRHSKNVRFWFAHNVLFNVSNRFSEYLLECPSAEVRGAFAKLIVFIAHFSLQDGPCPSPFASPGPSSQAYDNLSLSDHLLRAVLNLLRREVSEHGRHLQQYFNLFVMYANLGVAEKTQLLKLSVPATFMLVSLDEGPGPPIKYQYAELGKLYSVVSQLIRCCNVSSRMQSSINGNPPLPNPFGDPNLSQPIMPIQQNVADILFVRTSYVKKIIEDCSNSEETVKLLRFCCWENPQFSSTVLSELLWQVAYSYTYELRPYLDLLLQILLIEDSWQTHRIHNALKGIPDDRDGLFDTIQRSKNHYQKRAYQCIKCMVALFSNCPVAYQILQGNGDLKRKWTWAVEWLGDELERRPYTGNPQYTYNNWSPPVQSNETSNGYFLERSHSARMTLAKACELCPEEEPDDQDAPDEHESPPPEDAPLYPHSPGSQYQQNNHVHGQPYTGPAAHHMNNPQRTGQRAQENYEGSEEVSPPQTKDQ

In the case of `N#C/C(=C\c1ncc(Br)cc1F)C(=O)NC1(c2ccccc2)CCCC1` [Compound 9, (E)-3-(5-Bromo-3-fluoropyridin-2-yl)-2-cyano-N-(1-phenylcyclopentyl)acrylamide], the inhibition at 5 µM in test [1] and in test [2] was no less than 75% each time. In test [3], the “PARP cleavage % Inhibition” value was “A (A is ≧75% inhibition)”.

Take `CCOC(=O)CN1CCc2ccc(-c3cccc(/C=C(\C#N)C(=O)NC4(c5ccccc5)CCCC4)n3)cc2C1` [Compound 97, (E)-ethyl 2-(7-(6-(2-cyano-3-oxo-3-((1-phenylcyclopentyl)amino)prop-1-en-1-yl)pyridin-2-yl)-3,4-dihydroisoquinolin-2(1H)-yl)acetate]: the inhibition (commonly the percentage by which the read-out fell short of the control) at 5 µM in test [1] was 25 to 50%; in test [2], less than 25%. In addition, the “PARP cleavage % Inhibition” value in test [3] is recorded as “B (B is 50% to 75% inhibition)”.

As for `CCOc1ncc(C(F)(F)F)cc1-c1ccc(C2(NC(=O)/C(C#N)=C/c3ncc(Br)cc3Br)CCCC2)cc1` [Compound 54, (E)-2-cyano-3-(3,5-dibromopyridin-2-yl)-N-(1-(4-(2-ethoxy-5-(trifluoromethyl)pyridin-3-yl)phenyl)cyclopentyl)acrylamide], the inhibition at 5 µM in test [1] and in test [2] was less than 25% throughout. Moreover, in test [3], the “PARP cleavage % Inhibition” value is listed as “C (C is 25% to 50% inhibition)”.

Consider `N#C/C(=C\c1cccc(C2CC2)n1)C(=O)NC1(c2ccc(-c3ccc4[nH]ccc4c3)cc2)CCCC1` [Compound 99, (E)-N-(1-(4-(1H-indol-5-yl)phenyl)cyclopentyl)-2-cyano-3-(6-cyclopropylpyridin-2-yl)acrylamide], for which the inhibition at 5 µM was 25 to 50% in test [1] and less than 25% in test [2]. Besides, the “PARP cleavage % Inhibition” value in test [3] is reported as “C (C is 25% to 50% inhibition)”.

`Cn1cc(-c2cccc(/C=C(\C#N)C(=O)NC3(c4ccccc4)CCCC3)n2)cn1` [Compound 62, (E)-2-cyano-3-(6-(1-methyl-1H-pyrazol-4-yl)pyridin-2-yl)-N-(1-phenylcyclopentyl)acrylamide]: the inhibition at 5 µM in test [1] was 50 to 75%; in test [2], no less than 75%. In addition, the “PARP cleavage % Inhibition” value in test [3] is “A (A is ≧75% inhibition)”.

Consider `CCOC(=O)c1ccc(-c2cccc(/C=C(\C#N)C(=O)NC3(c4ccccc4)CCCC3)n2)cc1` [Compound 31, (E)-ethyl 4-(6-(2-cyano-3-oxo-3-((1-phenylcyclopentyl)amino)prop-1-en-1-yl)pyridin-2-yl)benzoate], for which the inhibition at 5 µM in test [1] is 25 to 50%; in test [2], less than 25%. The “PARP cleavage % Inhibition” value in test [3] was “B (B is 50% to 75% inhibition)”.

`N#C/C(=C\c1cccc(Br)n1)C(=O)NC1(c2ccc(-c3ccc4[nH]ncc4c3)cc2)CCCC1` [Compound 95, (E)-N-(1-(4-(1H-indazol-5-yl)phenyl)cyclopentyl)-3-(6-bromopyridin-2-yl)-2-cyanoacrylamide]: the inhibition at 5 µM in test [1] and in test [2] was less than 25% each time. Further, the “PARP cleavage % Inhibition” value in test [3] was “D (D is <25% inhibition)”.

Turning to `COC(=O)/C=C/c1cccc(/C=C(\C#N)C(=O)NC2(c3ccccc3)CCCC2)n1` [Compound 42, (E)-methyl 3-(6-((E)-2-cyano-3-oxo-3-((1-phenylcyclopentyl)amino)prop-1-en-1-yl)pyridin-2-yl)acrylate], the inhibition at 5 µM in test [1] is 50 to 75%; in test [2], no less than 75%. The “PARP cleavage % Inhibition” value in test [3] is on record as “A (A is ≧75% inhibition)”.

Take `N#C/C(=C\c1ccc(Br)cn1)C(=O)NC1(c2ccccc2)CCCC1` [Compound 29, (E)-3-(5-bromopyridin-2-yl)-2-cyano-N-(1-phenylcyclopentyl)acrylamide]: the results for the inhibition at 5 µM in test [1] and in test [2] were 50 to 75% and less than 25%, respectively. Further, in test [3], the “PARP cleavage % Inhibition” value was “A (A is ≧75% inhibition)”.

On to `N#C/C(=C\c1cccc(Br)n1)C(=O)NC1(c2ccccc2)CCCCC1` [Compound 17, (E)-3-(6-Bromopyridin-2-yl)-2-cyano-N-(1-phenylcyclohexyl)acrylamide], for which the figures for the inhibition at 5 µM in test [1] and in test [2] were 25 to 50% and 50 to 75%, respectively. Also, in test [3], the “PARP cleavage % Inhibition” value was “A (A is ≧75% inhibition)”.

On to `N#C/C(=C\c1cccc(Br)n1)C(=O)NC1(c2ccc(COC(=O)CCCCCN3C(=O)C=CC3=O)cc2)CCCC1` [Compound 85, (E)-4-(1-(3-(6-bromopyridin-2-yl)-2-cyanoacrylamido)cyclopentyl)benzyl 6-(2,5-dioxo-2,5-dihydro-1H-pyrrol-1-yl)hexanoate], for which the results for the inhibition at 5 µM in test [1] and in test [2] were 25 to 50% and less than 25%, respectively. Besides, the “PARP cleavage % Inhibition” value in test [3] is reported as “C (C is 25% to 50% inhibition)”.

Take `N#C/C(=C\c1cccc(C2CC2)n1)C(=O)NC1(c2ccc(-c3ccc(C(=O)O)cc3)cc2)CCCC1` [Compound 92, (E)-4′-(1-(2-cyano-3-(6-cyclopropylpyridin-2-yl)acrylamido)cyclopentyl)-[1,1′-biphenyl]-4-carboxylic acid]: the inhibition at 5 µM was 25 to 50% in test [1] and no less than 75% in test [2]. The “PARP cleavage % Inhibition” value in test [3] is recorded as “A (A is ≧75% inhibition)”.

With `N#C/C(=C\c1cccc(-c2ccc3[nH]ncc3c2)n1)C(=O)NC1(c2ccccc2)CCCC1` [Compound 70, (E)-3-(6-(1H-indazol-5-yl)pyridin-2-yl)-2-cyano-N-(1-phenylcyclopentyl) acrylamide], the inhibition at 5 µM in test [1] was 50 to 75%; in test [2] it was no less than 75%. Besides, in test [3], the “PARP cleavage % Inhibition” value is given as “A (A is ≧75% inhibition)”.

Take `N#C/C(=C\c1cccc(-c2cccc(C(=O)O)c2)n1)C(=O)NC1(c2ccccc2)CCCC1` [Compound 71, (E)-3-(6-(2-cyano-3-oxo-3-((1-phenylcyclopentyl)amino)prop-1-en-1-yl)pyridin-2-yl)benzoic acid]: the inhibition at 5 µM in test [1] and in test [2] was less than 25% in each case. Moreover, the “PARP cleavage % Inhibition” value in test [3] is reported as “D (D is <25% inhibition)”.

For `N#C/C(=C\c1cccc(Br)n1)C(=O)NC1(c2ccc(-c3cccnc3)cc2)CCCC1` [Compound 73, (E)-3-(6-bromopyridin-2-yl)-2-cyano-N-(1-(4-(pyridin-3-yl)phenyl)cyclopentyl)acrylamide], the inhibition at 5 µM in test [1] and in test [2] was no less than 75% each time. Further, in test [3], the “PARP cleavage % Inhibition” value was “A (A is ≧75% inhibition)”.

As for `N#C/C(=C\c1cccc(Br)n1)C(=O)NC1(c2ccccc2)CCCC1` [Compound 1, (E)-3-(6-Bromopyridin-2-yl)-2-cyano-N-(1-phenylcyclopentyl)acrylamide], the inhibition at 5 µM in test [1] and in test [2] was no less than 75% in each case. For the same compound, the “PARP cleavage % Inhibition” value in test [3] was “A (A is ≧75% inhibition)”.

On to `N#C/C(=C\c1ncc(Br)cc1Br)C(=O)NC1(c2ccc(F)cc2)CCCC1` [Compound 21, (E)-2-Cyano-3-(3,5-dibromopyridin-2-yl)-N-(1-(4-fluorophenyl)cyclopentyl)acrylamide], for which the inhibition at 5 µM in test [1] and in test [2] was no less than 75% each time. Further, in test [3], the “PARP cleavage % Inhibition” value is reported as “A (A is ≧75% inhibition)”.

With `N#C/C(=C\c1cccc(-c2ccc(N3CCOCC3)nc2)n1)C(=O)NC1(c2ccccc2)CCCC1` [Compound 57, (E)-2-cyano-3-(6′-morpholino-[2,3′-bipyridin]-6-yl)-N-(1-phenylcyclopentyl)acrylamide], the inhibition at 5 µM in test [1] and in test [2] was no less than 75% in each case. Further, the “PARP cleavage % Inhibition” value in test [3] is on record as “A (A is ≧75% inhibition)”.

As for `N#C/C(=C\c1cccc(Br)n1)C(=O)NC1(c2ccnc(F)c2)CCCC1` [Compound 3-7, (E)-3-(6-bromopyridin-2-yl)-2-cyano-N-(1-(2-fluoropyridin-4-yl)cyclopentyl)acrylamide], the values for the inhibition at 5 µM in test [1] and in test [2] were 25 to 50% and less than 25%, respectively. For the same compound, the “PARP cleavage % Inhibition” value in test [3] is given as “B (B is 50% to 75% inhibition)”.

As to `COC(=O)c1cccc(-c2ccc(C3(NC(=O)/C(C#N)=C/c4ncc(Br)cc4Br)CCCC3)cc2)c1` [Compound 38, (E)-methyl 4′-(1-(2-cyano-3-(3,5-dibromopyridin-2-yl)acrylamido)cyclopentyl)-[1,1′-biphenyl]-3-carboxylate], the inhibition at 5 µM in test [1] and in test [2] was 50 to 75% in each case. In test [3], the “PARP cleavage % Inhibition” value was “A (A is ≧75% inhibition)”.

The values above are taken from patent US20170088520A1, “DEUBIQUITINASE INHIBITORS” (PharmAkea, Inc., priority 2014, published 2017).
